Data taken from US6894153B1, “Gene Any-RF; dormancy regulatory substance, process for producing the same and cell regulator for vital cells” (priority 1999, dated 2005).
No end group written: not given here.

Legend:
[1] = system: pre-larvae of Antheraea yamamai; assay: Bioassay of dormancy-control in pre-larvae destined to awake by KK-42 treatment
Procedure: In general, the activity of a repressive factor is determined using a non-dormancy type insect and evaluated on the basis of the rate of dormancy induction, but there is not any non-dormancy type strain in Antheraea yamamai.
Subsequent to the completion of the treatment for awakening from the dormancy, 0.05 μl each of distilled water was injected to each larva after 24 hours from the completion of the treatment and this group of larvae was used as the control group. In the case of the isolated and purified product, a solution whose concentration was adjusted in such a manner that 100 pmol of the product was present in 0.05 μl of distilled water was injected into each larva, while in the case of the synthetic peptides in the amidated and free acid forms, 100 pmol/0.05 μl each of the peptide was injected into each larva. In any case, the larvae were inspected for the number of larvae falling into dormancy, the number of larvae awakening from the dormancy, the number of died larvae and the average days required till awakening from the dormancy (diapause termination) to thus evaluate the rate of larvae awakening from the dormancy.
After 24 hours from the treatment with the KK-42 solution, 0.05 μl of distilled water was injected to the pre-larvae, followed by a second distilled water injection thereto after additional 24 hours and a third distilled water injection after additional 24 hours from the second distilled water injection (in the following Table 2, they are referred to as control 1, 2 and 3 respectively). And the rate of pre-larvae awaken from the dormancy (the rate of diapause termination) was evaluated in each case.

[2] = system: cultured cells of lymphoma and leukemia; settings: Moore et al. 1994; cited from earlier work
[3] = system: rat hepatoma cells (dRLh84); assay: Morphological observation of cultured cancer cells (inverted microscope); type: cell-based; settings: 200 μg/ml
Procedure: (§1) Rat hepatoma cells (dRLh 84) were used and these cells were cultivated in Dulbecco's modified Eagle medium (DMEM) containing 4 mM glutamine, 50U/ml penicillin, 100 μg/ml kanamycin, and supplemented with 10% neonatal calf serum. In respect of the foregoing cells, the cultivation thereof was carried out at 37° C. in a wet atmosphere including 5% CO2.
The inhibitory effect of the penta-peptide on the growth of cancer cells was examined as follows. As the cancer cells, there were used rat hepatoma cells (dRLh84), which were relatively easily available and whose cultivation was easy. To make clear the relation between the physiologically active substance (RF—NH2) of the present invention and the growth of cancer cells, cancer cells were cultured in a cell culture medium supplemented with PBS(−) for a control group and culture mediums supplemented with 200 μg/ml each of the peptide whose C-terminal was amidated, i.e., RF—NH2 and the peptide whose C-terminal was in a free acid form, i.e., RF—COOH, respectively, for the experimental groups. The number of cultured cells was adjusted to 3 to 5×10^5, and the cells were cultured with or without a predetermined amount of each peptide in the presence of 5% CO2 at 37° C. […]

[4] = system: rat hepatoma cells (dRLh84); assay: Assay for cancer cell growth-control (viable cell count, trypan blue); type: cell-based
Procedure: as §1
The used culture medium was removed from a (100 mm dish (generally schale) in which cells were cultured and the dish was once washed with PBS(−) (prepared by removing Ca and Mg ions from phosphate buffered saline). To the dish, there was gently added 1.5 ml of a 10% trypsin solution so that the solution uniformly spreaded throughout the dish, 1 ml of the solution was removed, the dish was maintained at 37° C. for 5 minutes and it was confirmed with a microscope that the cells were pealed off from the bottom of the dish. Then 9.5 ml of a fresh DEME medium was added to the dish and the cells were separated into individual cells by pipetting to thus suspend the cells in the medium. Dishes of Φ100 mm were inoculated with this suspension in a dilution of 1/20 (total amount: 10 ml), followed by introduction thereof into an incubator and cultivation for 24 hours. Each peptide was added to these dishes in a predetermined concentration, followed by cultivation at 37° C., determination of the number of cells using a blood counting plate after 24 and 48 hours from the initiation of the cultivation to thus inspect the peptides for their cell growth-control functions.
Rat hepatoma cells (dRLh84, 3×10^5 cells) were cultured in a culture medium, to which the peptide (DILRG—NH2, SEQ ID NO:5, the peptide of SEQ ID NO:1 having the C-terminal amidated or DILRG—COOH, SEQ ID NO:1) was added in a predetermined amount (0, 50, 100, 150, 200 μg/ml) in the presence of 5% CO2 at 37° C. for 40 hours. Thereafter, the culture medium was treated with trypan blue to determine the […] cell count.
Thus, the cultivation time was extended to investigate the relation between the proliferation ability of cancer cells and the cultivation time using the physiologically active substance of the present invention. The method for cultivation used herein was identical to that used in Example 7. The cultivation time was extended up to 72 hours. The cultivation of 3×10^5 cells was carried out using a culture medium supplemented with PBS(−) for a control group and a cell culture medium for an experimental group, to which 200 μg/ml of the peptide (DILRG—NH2) was added, in the presence of 5% CO2 at 37° C. for 24, 48 and 72 hours, respectively. Thereafter, the culture medium was treated with trypan blue to determine the viable cell count.
The fact that the physiologically active substance derived from insects can results obtained in Examples 6, 7 and 8. […] Thus, we investigated which part of the 5 amino acid sequence of this substance is indispensable to the cell growth-control activity from the structural standpoint. Cells were cultured by the same method used in Example 6. More specifically, in the control group, there were used a culture medium supplemented with PBS(−) and FMRF—NH2(SEQ ID NO:4), which is widely distributed from echinoderms to insects and mammals, which comprises 4 amino acid residues and whose C-terminal is amidated. In an experimental group, there was used a culture medium supplemented with the complete synthetic peptide (DILRG—NH2) or an incomplete synthetic peptide (ILRG—NH2) free of the aspartic acid residue at the N-terminal in a concentration of 200 μg/2.6×10^5 cells. The control group and the experimental group were cultured at 37° C. for 48 hours in the presence of 5% CO2. Thereafter the cells were stained with trypan blue to thus determine the number of cells.

[5] = Acute toxicity test in mice; type: in vivo
Procedure: (§2) The foregoing peptide of the present invention as the physiologically active substance is almost free of an) side effect in the living body as compared with the conventional Cecropin and Pierisin and any acute toxicity is not observed at all. More specifically, the peptide of the present invention was administered to rats and mice through two routes, i.e., oral and percutaneous routes, in an amount of 0.5 g per unit body weight (1 kg) and the acute toxicity test was carried out according to the predetermined method. […] Moreover, the testis of the genital organ was removed from each animal after the acute toxicity test and the tissue was examined with a microscope. […] In addition, the peptide of the present invention is a low molecular weight penta-peptide and therefore, it never causes any antigen-antibody reaction and it is safe.

[6] = Acute toxicity test in rats; type: in vivo
Procedure: as §2

[7] = system: rat hepatoma cells (dRLh84); assay: Flow cytometric analysis of cell cycle (propidium iodide DNA content); type: cell-based; settings: 200 μg/ml; 48 hours
Procedure: The cells treated with each peptide was fixed at 4° C. for 4 hours using 70% ethanol. The fixed cells were washed with PBS(−), then treated with 2 mg/ml of RNaseA at 37° C. for 30 minutes to thus […] the RNA. Thereafter, the cells were stained with propidium iodide (25 μg/ml) for not less than 30 minutes and filtered through a nylon mesh. Then the intensity of fluorescence (DNA content per cell) observed for 10,000 cells was analyzed using a flow cytometer ([…] available from Becton Dickinson Company).
The fact that the physiologically active substance of the present invention can inhibit the cell growth ability of the rat hepatoma is substantiated experimentally by the results obtained in Examples 6, 7 and 8 (FIGS. 9, 10 and 11). Thus, we tried to elucidate the mechanism of the inhibition. The peptide (DILRG—NH2)(200 μg/ml) was added to the culture medium under the same conditions used in Example 6 and the cells were cultured, followed by fixing the cells after cultivation of 48 hours with ethanol and then staining the cells with propidium iodide. In addition, the same procedures used above were repeated using a culture medium supplemented with PBS(−) as a control group. The DNA content in the cells was analyzed using a flow cytometer. The flow cytometric analysis employed for this purpose comprises the step of staining cells with propidium iodide, which is a fluorescent dye capable of being linked with DNA to thus determine the DNA content of the cell and this method permits the analysis of the cell cycle control. More specifically, the biological cell multiplies by cell division while undergoing the following cycle change: G0/G 1. S (DNA replication stage) and M stage (cell division stage) in this order. FIGS. 12(A) and 12(B) are graphs each showing the results obtained by determining the DNA content in each cancer cell using a flow cytometer and then analyzing the results. It can be predicted from the data shown in FIGS. 12(A) and 12(B), i.e., the cell cycle change observed for the control group (PBS(−) was used, FIG. 12(A)) and that observed for the experimental group (RF—NH2 was used, FIG. 12(B)), that the pattern of the rat hepatoma cell cycle is differently affected by the presence and absence of the peptide.
Then the patterns observed in FIGS. 12(A) and 12(B) were examined in detail. In the G0/G1 stage, the DNA content is 2n, while that observed in the M stage is two times that observed for the G0/G1 stage or 4n. In the analysis of data shown in FIGS. 12(A) and 12(B), the DNA contents of 2n and 4n correspond to peaks or wide peaks at 360 and 700, respectively. If it is assumed that the analyzed pattern of the cell cycle change shown in FIGS. 12(A) and 12(B) comprises a linear coupling of peaks specific to G0/G1, S, M stages, the rate of cells in each stage can be obtained by dividing the pattern into these individual components.

[8] = 100 pmol/0.05 μl injected once 24 hours after KK-42 treatment, N 10 × 3
[9] = 100 pmol/0.05 μl injected once 24 hours after KK-42 treatment
[10] = Table 2, 100 pmol/0.05 μl × 1, N 10 × 3
[11] = Table 2, 100 pmol/0.05 μl × 2 (24 hours apart), N 10 × 3
[12] = Table 2, 100 pmol/0.05 μl × 3 (24 hours apart), N 10 × 3
[13] = Example 10, 200 μg/2.6×10^5 cells, 48 hours
[14] = after the acute toxicity test, 0.5 g/kg oral and percutaneous
[15] = oral and percutaneous routes, 0.5 g per unit body weight (1 kg)

1-benzyl-5-[(E)-2,6-dimethyl-1,5-heptadienyl] [KK-42, reference compound]
larvae awakened from the dormancy ([1]; 0.1 μg/0.5 μl solution in acetone applied on the ventral portion of each larva): 100%

Cecropin
anti-tumor activity to cultured cells [2]: anti-tumor activity

DILRG-OH [Asp-Ile-Leu-Arg-Gly-COOH]
Number of Insects Died [1, 8]: 0

H-DILRG-NH2 [Asp-Ile-Leu-Arg-Gly-NH2]
No. of Days (Time (day) required till Awakening) [1, 9]: 6.72 days | Rate (the rate of larvae awakening from dormancy) [1, 9]: 53.3% | Number of Insects Awa (Awakening from Dormancy) [1, 8]: 16 | Number of Insects Died [1, 8]: 0 | Number of Insects Dor (Dormancy) [1, 8]: 14 | Rate of Diapause Termination ([1]; Table 2, 100 pmol/0.05 μl × 1): 53.3% | Number of Insects Awa (Diapause Termination) [1, 10]: 16 | Number of Insects Died [1, 10]: 0 | Number of Insects Dor (Dormancy) [1, 10]: 14 | Rate of Diapause Termination ([1]; Table 2, 100 pmol/0.05 μl × 2 (24 hours apart)): 30% | Number of Insects Awa (Diapause Termination) [1, 11]: 9 | Number of Insects Died [1, 11]: 0 | Number of Insects Dor (Dormancy) [1, 11]: 21 | Rate of Diapause Termination ([1]; Table 2, 100 pmol/0.05 μl × 3 (24 hours apart)): 13.3% | Number of Insects Awa (Diapause Termination) [1, 12]: 4 | Number of Insects Died [1, 12]: 0 | Number of Insects Dor (Dormancy) [1, 12]: 26 | number of cancer cells compared with the initiation of the cultivation (0 hour) ([3]; after 24 and 48 hours): not increased at all | shape of the cells ([3]; after 48 hours): changed from a spindle-like shape to a circular shape | viable cell count ([4]; Example 7, 50 μg/ml, 3×10^5 cells cultured 40 hours): markedly reduced | viable cell count ([4]; Example 7, 200 μg/ml, 3×10^5 cells cultured 40 hours): 7.7×10^5 cells | viable cell count relative to that observed for the control group ([4]; Example 7, 200 μg/ml, 40 hours): a half | viable cell count ([4]; Example 8, 200 μg/ml, from 3×10^5 cells within 72 hours): 8×10^5 cells | factor of increase of the number of cells ([4]; Example 8, 200 μg/ml, within 72 hours): 2.7 | viable cell count [4, 13]: ~7.7×10^5 cells | cancer cell growth after transfer to fresh culture medium without peptide ([4]; after cultivation for 48 hours with 200 μg/ml peptide): rapidly began to proliferate like the control group | testis tissue examined with a microscope [5, 14]: any abnormality was not observed at all | acute toxicity such as convulsion and vomiting [5, 15]: not observed any acute toxicity | testis tissue examined with a microscope [6, 14]: any abnormality was not observed at all | acute toxicity such as convulsion and vomiting [6, 15]: not observed any acute toxicity | G0/G1 stage rate higher than that observed for the control group [7]: not less than 30% | Rate of cells in G0/G1 Stage [7]: 66.07% | Rate of cells in G2/M Stage [7]: 12.10% | Rate of cells in S Stage [7]: 21.84% | S stage rate lower than that observed for the control group [7]: not less than 40%

Ile-Leu-Arg-Gly (ILRG-NH2) [ILRG—NH2]
growth-inhibitory effect [4, 13]: sufficient growth-inhibitory effect | viable cell count [4, 13]: 8.4×10^5 cells
